According to patent publication US12613249B2 (THE ROYAL INSTITUTION FOR THE ADVANCEMENT OF LEARNING / …, priority 2019, dated 2026):
Square brackets hold non-standard residues; d marks the D form. Peptide text beside a SMILES is read from it.

How the values were obtained:
metalloproteases [1] = test: Metalloprotease inhibition in APP-overexpressing SH-SY5Y cells, 4-plex MSD; format: cell-based, human; conditions: supernatant
Description: (§1) Using the ELISA Conversion Kit from Meso Scale Discovery (MSD, USA), an electrochemiluminescence-based assay was developed (neo-epitope specific Aβ34 and the sulfo-tagged 6E10 (binds to the N-terminus of human Aβ) or the sulfo-tagged 4G8 for murine samples (binds to the mid domain of Aβ)). High-bind or custom-printed 4-plex plates (using the mab34, 4G8 (Biolegend) for pan-Aβ assay, G2−10 for 1-plex Aβ40 assay, and MSD's validated mouse monoclonal anti-Aβ38, anti-Aβ40, as well as anti-Aβ42 antibodies, see MSD Aβ peptide V-PLEX) were blocked (MSD 5% Blocker A in PBS) for 1 h at 22° C. and washed three times with PBS-T for 1 min. at 22° C., loaded with SULFO-TAG™ 6E10 or 4G8 detection antibody (diluted to 1× in MSD Diluent 100) and sample or peptide calibrator (in MSD Diluent 35 or cell culture medium), and incubated for 16 h at 4° C. with shaking at 600 rpm. After three washing steps with PBS-T for 1 min. at 22° C., 150 μL 2×MSD read buffer were added per well. All plates were read using a MSD QuickPlex SQ 120 Imager and data analyzed using MSD Workbench® software. Standard curves were fitted using a non-linear four-parameter logistic fit with 1/y^2 weighting. The equation is: […]

metalloproteases [2] = test: Metalloprotease inhibition in BACE1-overexpressing SH-SY5Y cells, 4-plex MSD; format: cell-based, human; conditions: supernatant
Description: as §1

mouse plasma = conditions: C57BL/6 male and female mice, 37° C., up to 24 h
[3] = Ex-vivo stability in mouse liver S9-fraction, MALDI-TOF MS; format: in vitro ADME, C57BL/6 mice; conditions: mouse liver S-9 fraction, after 24 h
Protocol: (§2) The stability of D-AIP in mouse plasma, blood and liver S-9 fraction was investigated to ascertain the metabolic resistance towards proteases and enzymatic activities in these matrices. Whole mouse blood obtained from healthy C57BL/6 male and female mice (6 mice in total) were collected in lithium heparin containing tubes, pooled and stored at 4° C. prior to its use. A fraction of the pooled blood was immediately centrifuged at 1500×g for 10 min at 4° C. to obtain the plasma. The whole blood and plasma samples were spiked with PBS (as control) or AIP (L-AIP, D-AIP or sD-AIP respectively) to make a final concentration of 1 ug/mL and incubated at 37° C. Initial samples were withdrawn to represent t=0 prior to incubation and others were withdrawn 1, 3 and 24 h respectively. Fresh mouse liver also obtained from C57BL/6 male and female mice were pooled, homogenized in 0.15 M Potassium chloride (KCl) and centrifuged at 9000×g. The supernatant represents liver homogenate (S-9) fraction which was mixed with other buffers to formulate the liver S-9 mix as previously described (Kolrep et al., 2017, Toxicol In Vitro, 42:161-170). Liver S-9 mix were spiked with AIP to make a final concentration of 1 μg/mL (L-AIP, D-AIP or sD-AIP respectively) and incubated at 37° C. Just after the addition of NADPH, 100 μL aliquot which represents t=0 samples were withdrawn and others were sampled accordingly at predetermined time points. 400 μL of ice cold MeOH was added to the spiked plasma, blood or liver S-9 fraction respectively, to precipitate the microsomal protein. The samples were then vigorously mixed for 30 s to facilitate extraction and centrifuged for 10 minutes at 13000 rpm, the supernatant was subjected to sample clean up by C18 ZipTip (EMD Millipore Corporation), the eluates were spotted with CHCA matrix on the ground steel MALDI-TOF target and analyzed with MALDI-TOF MS. Applying the t=0 peak area as 100% the intensities of the other time points were compared relatively for interpretation. […]

[4] = Ex-vivo stability in mouse whole blood, MALDI-TOF MS; format: in vitro ADME; conditions: both sexes, C57BL/6, 24 h incubation, read-out: decrease of signal
Protocol: as §2

Compound: CC(C)C[C@H](NP(=O)(O)O[C@@H]1O[C@@H](C)[C@H](O)[C@@H](O)[C@H]1O)C(=O)N[C@@H](Cc1c[nH]c2ccccc12)C(=O)O [PA, phosphoramidon]
- increase of Aβ34 (metalloproteases [1]): approximately 9 fold
- increase of Aβ38, Aβ40, and Aβ42 (metalloproteases [1]): 2-3 fold
- Aβ38, Aβ40, and Aβ42 levels (metalloproteases [2]): not significantly changed
- increase of Aβ34 (metalloproteases [2]): about 2.5 fold

Compound: D-amino acids of RGTFEGKF (H-[dR]G[dT][dF][dE]G[dK][dF]-OH; N-terminus and C-terminus assumed; SMILES C[C@H](O)[C@@H](NC(=O)CNC(=O)[C@H](N)CCCNC(=N)N)C(=O)N[C@H](Cc1ccccc1)C(=O)N[C@H](CCC(=O)O)C(=O)NCC(=O)N[C@H](CCCCN)C(=O)N[C@H](Cc1ccccc1)C(=O)O)
- not cleaved (mouse plasma): relatively stable over 24 h in mouse plasma

Compound: C[C@H](O)[C@@H](NC(=O)[C@@H](Cc1ccccc1)NC(=O)[C@@H](CCCCN)NC(=O)[C@@H](CCCNC(=N)N)NC(=O)[C@@H](Cc1ccccc1)NC(=O)[C@H](N)CCC(=O)O)C(=O)NCC(=O)NCC(=O)O [sD-AIP, reference compound] (H-[dE][dF][dR][dK][dF][dT]GG-OH; N-terminus and C-terminus assumed)
- signal intensity compared to the unincubated sample [3]: four-fold reduced intensity
- metabolised at 24 h, 1 ug/mL [4]: ~50%
